Test results reported in patent publication US9708305B2, “Substituted 1,2,3,4-tetrahydroisoquinoline derivatives for the treatment of hormone-dependent diseases” (UNIVERSITÉ LAVAL, priority 2013, dated 2017).

Tests used:
T-47D cells [1] = assay: T-47D cell proliferation (estrogenicity / cytotoxicity), MTS; format: cell-based
steroid sulfatase (STS) = molecular target: T1, steroid sulfatase (STS) (Homo sapiens, UniProt P08842); assay: Steroid sulfatase (STS) inhibition, [3H]-E1S to [3H]-E1, homogenate of transfected HEK-293 cells; format: biochemical; settings: transformation of E1S into E1 in homogenate of HEK-293 cells transfected with STS; read-out: Steroid Sulfatase Inhibition IC50
T1 construct: expressed in transfected cells; host or cells: HEK-293 cells stably transfected with STS (G418 selection), obtained from Dr. Van Luu-The; used as freeze-thaw homogenate
T1 sequence (P08842 22-583): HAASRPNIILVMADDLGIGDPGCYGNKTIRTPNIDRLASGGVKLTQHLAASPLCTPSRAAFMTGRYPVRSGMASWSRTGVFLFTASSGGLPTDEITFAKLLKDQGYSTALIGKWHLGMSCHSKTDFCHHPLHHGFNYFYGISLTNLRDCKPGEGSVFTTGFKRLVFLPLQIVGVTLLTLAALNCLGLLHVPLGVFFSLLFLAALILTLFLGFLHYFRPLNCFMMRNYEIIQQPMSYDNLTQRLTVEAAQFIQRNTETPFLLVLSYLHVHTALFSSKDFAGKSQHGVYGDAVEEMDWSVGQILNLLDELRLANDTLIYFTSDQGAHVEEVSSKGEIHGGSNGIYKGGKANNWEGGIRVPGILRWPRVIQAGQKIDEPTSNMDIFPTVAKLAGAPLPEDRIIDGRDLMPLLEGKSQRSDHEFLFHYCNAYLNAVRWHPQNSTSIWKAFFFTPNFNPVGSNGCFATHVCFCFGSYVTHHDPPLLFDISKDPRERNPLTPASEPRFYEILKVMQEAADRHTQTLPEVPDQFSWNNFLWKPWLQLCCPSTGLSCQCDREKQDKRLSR
Experimental: To test STS inhibition, we used homogenated HEK-293 cells overexpressing STS and evaluated the capacity of our compounds to inhibit the conversion of [^3H]-E1S into [^3H]-E1. […] This is outlined in FIG. 5.
An enzymatic assay previously described was used for the inhibition of the transformation of estrone sulfate (E1S) to estrone (E1) by STS.^72 Briefly, the transfected HEK-293 cells were homogenized by repeated (5 times) cycles of freezing (−80° C.) and thawing on ice (4° C.). The homogenates were then incubated for 2 h at 37° C. (shaking water bath) with or without inhibitors (0.01 μM-1 μM) in presence of [^3H]-E1S (9 nM), adjusted to 1 μM with E1S, in a Tris-acetate buffer (pH 7.4) containing 5 mM EDTA and 10% glycerol. After the incubation, 1 mL of xylene was added to each tube and the solutions were then centrifuged at 3000 rpm for 20 min to separate the organic ([^3H]-E1) and aqueous ([^3H]-E1S) phases. Once 500 μL of each phase was added to 10 mL of Biodegradable Counting Scintillant, the radioactivity of samples was recorded using a Wallac 1411 Liquid Scintillation Counter. The percentage of inhibition was determined by comparison with the control (buffer+homogenate+[^3H]-E1S) which was set to 0% of inhibition. IC50 value was obtained using GraphPad Prism 5 (GraphPad Software, La Jolla, Calif.).

T-47D cells [2] = assay: T-47D cell proliferation in presence of E2 (antiestrogenicity); format: cell-based; settings: Homo sapiens, T47D; read-out: Breast cancer cells T-47D (ER+) Antagonist activity (%)
Experimental: (§1) CellTitter 96® Aqueous One Solution Cell Proliferation Assay was used as an indirect colorimetric measurement of cell proliferation according to the manufacturer's instructions. Briefly, after the treatments, 20 μL of MTS solution was added to each well (100 μL) of the plates and incubated at 37° C. for 2 h (Saos-2) or 4 h (T-47D). The absorbance at 490 nm was then measured with a Thermo max microplate reader (Molecular Devices, Sunnyvale, Calif.). The control (culture media+DMSO) is set to 100% of cell proliferation.
The cells were plated in 96-well plates at a density of 3 000 cells/well and allowed to attach for 48 h. After this pre-incubation, the inhibitors and the reference compounds diluted in fresh culture media were added to the wells and replaced every 2 days for 7 days of treatment.

[3] = tested on: osteoblast-like Saos-2 cells; assay: Saos-2 cell proliferation, MTS; format: cell-based; settings: in percentage of control (100%; 0.1 nM of estradiol)
Excerpt: First, we wanted to evaluate their effect on cell proliferation. […] This is outlined in FIG. 8A. […] One of the main roles of osteoblasts in bone tissue is to construct a calcified extracellular matrix.^15 As such, bone formation is not principally due to osteoblasts proliferation but rather osteoblasts maturation into mature osteocytes. […] This is outlined in FIG. 8B.
as §1
Saos-2 cells were suspended in phenol-red free McCoy's 5A medium supplemented with 10% charcoal-stripped FBS, penicillin (100 IU/mL) and streptomycin (100 μg/mL). The cells were seeded in 96-well plates at a density of 3 000 cells/well and allowed to attach. After 24 h, the inhibitors and the reference compounds diluted in fresh culture media were added to the wells and replaced every 2 days for 7 days of treatment.

MCF-7 (ER+) cells = assay: Proliferative (estrogenic) activity on MCF-7 (ER+) cells; format: cell-based; settings: 0.1 nM; 7 days; control 100%
Experimental: The next step was to determine the presence or absence of estrogenic activity. To do so, cell proliferative assays were carried out on MCF-7 cells. […] Phenols of the corresponding sulfamate library 3-EO and 4-EO are referred to as library 3′-EO and library 4′-EO, respectively.
This cell assay was carried out according to a procedure previously described to determine the estrogenic activity of enzyme inhibitors on the growth of estrogen-sensitive MCF-7 cells.^77 All chemicals tested were first dissolved in DMSO and subsequent dilutions were done in the proper cell culture media. The final concentration of DMSO in the culture medium was 0.1% or less. 3-(4,5-dimethylthiazol-2-yl)-5-(3-carboxymethoxyphenyl)-2-(4-sulfophenyl)-2-H-tetrazolium (MTS) was used as an indirect colorimetric measurement of cell proliferation according to the manufacturer's instructions (Promega, Madison, Wis.). At the end of the treatments, 20 μL of MTS solution was added to each well (100 μL) and the MCF-7 cells were incubated 4 h at 37° C. The absorbance at 490 nm was then measured with a Thermo max microplate reader (Molecular Devices, Sunnyvale, Calif.). The control (culture media+DMSO) is set to 100% of cell proliferation.

IC50 (steroid sulfatase (STS)): > 1000 nM
Compound: C[C@]12CC[C@@H]3c4ccc(O)cc4CC[C@H]3[C@@H]1CC[C@@H]2O [E2, 17β-estradiol, reference compound]
T-47D cell proliferation (T-47D cells [1]; 0.1 nM, control 100%, 7 days): approximately 160%
Breast cancer cells T-47D (ER+) Agonist activity (%) (T-47D cells [1]; 1 μM, in % of control (100%; 0.1 nM of estradiol)): 100%
inhibition at 1 µM (T-47D cells [2]): 0%
Bone cells Saos-2 (ER+) SERM effect Proliferative activity (%) ([3]; 0.1 μM): 100%
Bone cells Saos-2 (ER+) SERM effect Proliferative activity (%) ([3]; 1 μM): 100%
proliferation of MCF-7 (ER+) cells (MCF-7 (ER+) cells): 176%
